Laboratory results: patent US5336621A, “Divalent hapten derivatives” (Hoechst Celanese Corporation, priority 1988, dated 1994)

Experiment: Solubility comparison for bis-(theophylline-8-butyryl)-diamides
Assay type: physicochemical
Protocol: The bis-(theophylline-8-butyryl)-diamides of 1,6-hexanediamine and 4,9-dioxa-1,12-dodecanediamine (examples 2 and 3) were each dissolved in dimethylsulfoxide. The 4,9-dioxa-1,12-dodecanediamide dissolved readily to give a solution of 10 mg/0.5 ml at room temperature.

| Compound | behaviour on dilution of DMSO solution into aqueous phosphate buffer (10 mg/2 ml DMSO solution diluted into a two-fold volume of pH 7.5 phosphate buffer) | solution obtained in dimethylsulfoxide (required heating to obtain a solution in dimethylsulfoxide) [mg/2 ml] | behaviour on dilution of DMSO solution into aqueous phosphate buffer (10 mg/0.5 ml DMSO solution diluted into 2 ml of 50 mM aqueous sodium phosphate buffer (pH 7.5)) | solution obtained in dimethylsulfoxide (dissolved readily in dimethylsulfoxide, room temperature) [mg/0.5 ml] |
| --- | --- | --- | --- | --- |
| Cn1c(=O)c2[nH]c(CCCC(=O)NCCCCCCNC(=O)CCCc3nc4c([nH]3)c(=O)n(C)c(=O)n4C)nc2n(C)c1=O [Example 2, bis-(Theophylline-8-butyryl)-1,6-hexanediamine] | immediate heavy precipitation of divalent hapten was noted | 10 | – | – |
| Cn1c(=O)c2[nH]c(CCCC(=O)NCCCOCCCCOCCCNC(=O)CCCc3nc4c([nH]3)c(=O)n(C)c(=O)n4C)nc2n(C)c1=O [Example 3, bis-(Theophylline-8-butyryl)-4,9-dioxa-1,12-dodecane-diamide] | – | – | clear, stable solution | 10 |
